Values joined by “and” are separate entries in the source; they are usually repeats but may differ in a detail not shown here. Equal values may be shown once.
What was measured:
[1] = test system: Corn; experiment: General herbicidal effect alone/in combination, corn (first Corn column); format: in vivo; parameters: key: 0-10 scale: 0 = no injury, 10 = death; conditions: alone
Method: (§1) Various of the compounds to be employed as active agent in accordance with the present invention were evaluated for preemergent application to various species of plants. In this evaluation, a soil was prepared consisting of one part masonry sand and one part shredded top soil blended together in a cement mixer. One gallon of this soil was placed in a 25 × 35 cm. galvanized flat and was patted down with a bench brush until level. A three-row marker was used to make 21/2 cm. deep furrows in approximately two-fifths of the flat. Crop seeds consisting of four kernels of corn, five cotton seeds and five soybean seeds were placed in these furrows. A four-row template was then placed on the remaining soil and the indicated approximate numbers of each of the following seeds were planted, one species to each section: foxtail (millet), 80-100 seeds; velvetleaf (40-50 seeds); rough pigweed (150-250 seeds); and large crabgrass (100-150 seeds).
(§2) Sufficient soil was added to cover the entire flat. Thus, the weed seeds were covered to a depth of about 6 mm. and the crop seeds were covered to a depth of about 3 cm.
(§3) In assaying the effect of the composition as preemergent herbicides, a flat prepared as above, taken either on the day of planting or on the next day, was placed in a chamber equipped with a turntable and an air exhaust. The herbicidal composition, either a spray-type emulsion or a wettable powder, was applied to the flat with a modified DeVilbiss atomizer hooked to an air source. Twelve and one-half milliliters of the composition under test were applied to each flat either on the day of planting or the succeeding day. Injury ratings and observations as to type of injury were made eleven to twelve days after treatment. The injury rating scale used was as follows:
(§4) 4--death When more than one determination was carried out at a given rate, an average value was calculated for the injury rating. Each compound evaluated was formulated as a spray by one of the following procedures. In one method the particular compound was wetted by grinding in a mortar with one part of polyoxyethylene sorbitan monolaurate. Five hundred parts of water were added slowly to the resultant creamy paste to give an aqueous dispersion with a surfactant concentration of 0.2 percent. This dispersion was entirely satisfactory for spray application. In a second procedure the compound was dissolved in one volume of acetone, and the acetone solution was diluted with nineteen volumes of water containing 0.1 percent of polyoxyethylene sorbitan monolaurate.
(§5) 6-Chloro-1-hydroxy-2-(trifluoromethyl)-1H-imidazo(4,5-b)pyridine was evaluated in combination with 2-chloro-4-ethylamino-6-isopropylamino-s-triazine and separately in combination with 2-chloro-2',6'-diethyl-N-(methoxymethyl)acetanilide for the control of plants. The evaluations were conducted as described in Examples 49-52, except that the rates of compound differed and the species were different. General herbicidal effect was rated on a scale of 0-10, with 0 = no injury and 10 = death. Observations were also made for the following other specific phytotoxic effects.

[2] = test system: Foxtail Millet; experiment: General herbicidal effect alone/in combination, foxtail millet; format: in vivo; parameters: key: 0-10 scale: 0 = no injury, 10 = death; conditions: alone
Method: as §1, §2, §3, §4, §5

[3] = test system: Ragweed; experiment: General herbicidal effect alone/in combination, ragweed; format: in vivo; parameters: key: 0-10 scale: 0 = no injury, 10 = death; conditions: alone
Method: as §1, §2, §3, §4, §5

[4] = test system: Morning glory; experiment: General herbicidal effect alone/in combination, morning glory; format: in vivo; parameters: key: 0-10 scale: 0 = no injury, 10 = death; conditions: alone
Method: as §1, §2, §3, §4, §5

[5] = test system: Lambs Quarter; experiment: General herbicidal effect alone/in combination, lambsquarter; format: in vivo; parameters: key: 0-10 scale: 0 = no injury, 10 = death; conditions: alone, listed as A
Method: as §1, §2, §3, §4, §5

[6] = test system: Cotton; experiment: Preemergent injury rating, cotton; format: in vivo; parameters: key: injury rating scale on which 4 = death
Method: as §1, §2, §3, §4
(§6) In the following table setting forth the results of the evaluation, column 1 gives the name of the compound under test; column 2, the rate in pounds per acre at which the compound was applied to the test flat; and the remaining columns, the injury to the particular plant seeds or seedlings as measured by the foregoing scale.

[7] = test system: Velvet Leaf; experiment: Preemergent injury rating, velvetleaf; format: in vivo; parameters: key: injury rating scale on which 4 = death
Method: as §1, §2, §3, §4, §6

[8] = test system: Pigweed; experiment: General herbicidal effect alone/in combination, pigweed; format: in vivo; parameters: key: 0-10 scale: 0 = no injury, 10 = death; conditions: alone
Method: as §1, §2, §3, §4, §5

[9] = test system: Barnyard Grass; experiment: General herbicidal effect alone/in combination, barnyard grass; format: in vivo; parameters: key: 0-10 scale: 0 = no injury, 10 = death; conditions: alone
Method: as §1, §2, §3, §4, §5

[10] = test system: Corn; experiment: General herbicidal effect alone/in combination, corn (second Corn column); format: in vivo; parameters: key: 0-10 scale: 0 = no injury, 10 = death; conditions: alone
Method: as §1, §2, §3, §4, §5

[11] = test system: Crabgrass; experiment: Preemergent injury rating, crabgrass; format: in vivo, large crabgrass; parameters: key: injury rating scale on which 4 = death
Method: as §1, §2, §3, §4, §6

[12] = test system: Large Crabgrass; experiment: General herbicidal effect alone/in combination, large crabgrass; format: in vivo; parameters: key: 0-10 scale: 0 = no injury, 10 = death; conditions: alone, 1.0 lbs/A; listed as A
Method: as §1, §2, §3, §4, §5

[13] = test system: Pigweed; experiment: Preemergent injury rating, pigweed; format: in vivo, rough pigweed; parameters: key: injury rating scale on which 4 = death
Method: as §1, §2, §3, §4, §6

[14] = test system: Jimsonweed; experiment: General herbicidal effect alone/in combination, jimsonweed; format: in vivo; parameters: key: 0-10 scale: 0 = no injury, 10 = death; conditions: alone
Method: as §1, §2, §3, §4, §5

[15] = test system: Foxtail; experiment: Preemergent injury rating, foxtail; format: in vivo, foxtail (millet); parameters: key: injury rating scale on which 4 = death
Method: as §1, §2, §3, §4, §6

[16] = test system: Rice; experiment: General herbicidal effect alone/in combination, rice; format: in vivo; parameters: key: 0-10 scale: 0 = no injury, 10 = death; conditions: alone
Method: as §1, §2, §3, §4, §5

[17] = test system: Velvet Leaf; experiment: General herbicidal effect alone/in combination, velvetleaf; format: in vivo; parameters: key: 0-10 scale: 0 = no injury, 10 = death; conditions: alone
Method: as §1, §2, §3, §4, §5

[18] = test system: Corn; experiment: Preemergent injury rating, corn; format: in vivo; parameters: key: injury rating scale on which 4 = death
Method: as §1, §2, §3, §4, §6

[19] = test system: Sorghum; experiment: General herbicidal effect alone/in combination, sorghum; format: in vivo; parameters: key: 0-10 scale: 0 = no injury, 10 = death; conditions: alone
Method: as §1, §2, §3, §4, §5

[20] = test system: Soybean; experiment: Preemergent injury rating, soybean; format: in vivo; parameters: key: injury rating scale on which 4 = death
Method: as §1, §2, §3, §4, §6

[21] = test system: Corn; experiment: Postemergent injury rating, corn; format: in vivo; parameters: key: injury rating scale, 4 = death
Method: as §1, §2, §3, §4
(§7) Representative compounds of the present invention were evaluated for postemergent application to plants including corn and several weed species. The evaluation was carried out in accordance with the procedures of Examples 49-52 except that the test solutions were applied about 9-12 days after the preparation and seeding of the flats.

[22] = test system: Pigweed; experiment: Postemergent injury rating, pigweed; format: in vivo, rough pigweed; parameters: key: injury rating scale, 4 = death
Method: as §1, §2, §3, §4, §7

[23] = test system: Foxtail; experiment: Postemergent injury rating, foxtail; format: in vivo, foxtail (millet); parameters: key: injury rating scale, 4 = death
Method: as §1, §2, §3, §4, §7

[24] = test system: Crabgrass; experiment: Postemergent injury rating, crabgrass; format: in vivo, large crabgrass; parameters: key: injury rating scale, 4 = death
Method: as §1, §2, §3, §4, §7

On1c(C(F)(F)F)nc2ncc(Cl)cc21 [6-chloro-1-hydroxy-2-(trifluoromethyl)-1H-imidazo(4,5-b)pyridine]
9BS and 8BS: herbicidal effect, Lambs Quarter ([5]; 2.0 lbs/A)
2S: herbicidal effect, Foxtail Millet ([2]; 0.5 lbs/A)
8BS: herbicidal effect, Ragweed ([3]; 1.0 lbs/A) | herbicidal effect, Sorghum ([19]; 1.0 lbs/A)
0: herbicidal effect, Corn ([1]; 0.25 lbs/A) | herbicidal effect, Corn ([1]; 0.5 lbs/A) | herbicidal effect, Corn ([1]; 1.0 lbs/A) | herbicidal effect, Foxtail Millet ([2]; 0.25 lbs/A) | Injury Rating, Cotton ([6]; 1 lbs/acre) | Injury Rating, Cotton ([6]; 2 lbs/acre) | Injury Rating, Cotton ([6]; 4 lbs/acre) | herbicidal effect, Pigweed ([8]; 0.25 lbs/A) | herbicidal effect, Barnyard Grass ([9]; 0.25 lbs/A) | herbicidal effect, Corn ([10]; 0.25 lbs/A) | herbicidal effect, Corn ([10]; 0.5 lbs/A) | herbicidal effect, Corn ([10]; 1.0 lbs/A) | herbicidal effect, Rice ([16]; 0.25 lbs/A) | herbicidal effect, Velvet leaf ([17]; 0.25 lbs/A) | Injury Rating, Corn ([18]; 1 lbs/acre) | Injury Rating, Corn ([18]; 2 lbs/acre) | herbicidal effect, Sorghum ([19]; 0.25 lbs/A) | Injury Rating, Soybean ([20]; 1 lbs/acre) | Injury Rating, Soybean ([20]; 2 lbs/acre) | Injury Rating, Soybean ([20]; 4 lbs/acre)
9SB and 6SB: herbicidal effect, Lambs Quarter ([5]; 1.0 lbs/A)
10D: herbicidal effect, Foxtail Millet ([2]; 2.0 lbs/A) | herbicidal effect, Morning glory ([4]; 0.5 lbs/A) | herbicidal effect, Morning glory ([4]; 2.0 lbs/A) | herbicidal effect, Sorghum ([19]; 2.0 lbs/A)
4B and 2B: herbicidal effect, Jimsonweed ([14]; 0.25 lbs/A, listed as A)
1: Injury Rating, Corn ([18]; 4 lbs/acre) | Injury Rating, Corn ([18]; 8 lbs/acre) | Injury Rating, Soybean ([20]; 8 lbs/acre)
2S and 3S: herbicidal effect, Ragweed ([3]; 0.25 lbs/A, listed as A) | herbicidal effect, Pigweed ([8]; 0.5 lbs/A, listed as A) | herbicidal effect, Velvet leaf ([17]; 0.5 lbs/A, listed as A)
3: Injury Rating, Velvet Leaf ([7]; 8 lbs/acre) | Injury Rating, Crabgrass ([11]; 2 lbs/acre) | Injury Rating, Foxtail ([15]; 1 lbs/acre) | Injury Rating, Foxtail ([15]; 2 lbs/acre) | Injury Rating, Foxtail ([15]; 4 lbs/acre) | Injury Rating, Foxtail ([15]; 8 lbs/acre)
3S and 2S: herbicidal effect, Barnyard Grass ([9]; 1.0 lbs/A, listed as A) | herbicidal effect, Large Crabgrass [12]
3B: herbicidal effect, Rice ([16]; 0.5 lbs/A)
8BS and 5BS: herbicidal effect, Jimsonweed ([14]; 0.5 lbs/A, listed as A)
2: Injury Rating, Cotton ([6]; 8 lbs/acre) | Injury Rating, Velvet Leaf ([7]; 1 lbs/acre)
9BS: herbicidal effect, Barnyard Grass ([9]; 2.0 lbs/A) | herbicidal effect, Jimsonweed ([14]; 1.0 lbs/A) | herbicidal effect, Jimsonweed ([14]; 2.0 lbs/A)
4: Injury Rating, Velvet Leaf ([7]; 2 lbs/acre) | Injury Rating, Velvet Leaf ([7]; 4 lbs/acre) | Injury Rating, Crabgrass ([11]; 1 lbs/acre) | Injury Rating, Crabgrass ([11]; 4 lbs/acre) | Injury Rating, Crabgrass ([11]; 8 lbs/acre) | Injury Rating, Pigweed ([13]; 1 lbs/acre) | Injury Rating, Pigweed ([13]; 2 lbs/acre) | Injury Rating, Pigweed ([13]; 4 lbs/acre) | Injury Rating, Pigweed ([13]; 8 lbs/acre)

On1c(C(F)(F)F)nc2nccc(Cl)c21 [7-chloro-1-hydroxy-2-(trifluoromethyl)-1H-imidazo(4,5-b)pyridine]
3: Injury Rating, Pigweed ([22]; 4 lbs/acre) | Injury Rating, Pigweed ([22]; 8 lbs/acre) | Injury Rating, Foxtail ([23]; 8 lbs/acre)
0: Injury Rating, Corn ([21]; 4 lbs/acre)
1: Injury Rating, Corn ([21]; 8 lbs/acre) | Injury Rating, Foxtail ([23]; 4 lbs/acre) | Injury Rating, Crabgrass ([24]; 4 lbs/acre)
2: Injury Rating, Crabgrass ([24]; 8 lbs/acre)

Reference: patent US4087432A, “1H-imidazo(4,5-b)pyridine compounds” (Eli Lilly and Company, priority 1975, dated 1978)
